These results are taken from US5665718A, “Imidazodiazepines” (Hoffmann-La Roche Inc., priority 1994, dated 1997).

For orientation: IC50 means the concentration needed to halve the response being measured. Read a low IC50 as greater potency in that assay.

The target of data set [1] is central benzodiazepine receptors. Nature of the data set: Affinity to central benzodiazepine receptors: inhibition of binding of tritiated flumazenil in rat cortex. The settings on record: in vitro. As for the experimental part: The affinity of compounds of general formula I to the central benzodiazepine receptors was established in vitro according to the methods described in Nature 294, 763-765 (1981) and J. Neurochemistry 37, 714-722 (1981). According to these methods, the inhibition of the binding of tritiated flumazenil to the specific benzodiazepine receptors in the cortex of rats by the respective test substances is determined. The IC50 ("50% inhibiting concentration") denotes that concentration of the respective test substance which brings about a 50 per cent inhibition of the specific binding of tritiated flumazenil to the specific benzodiazepine receptors in the cortex of rats.

Data set [2] is described as follows: Rotating rod test (sedative/muscle relaxant properties), i.v. It counts as in vivo. The settings on record: Mus musculus, iv, mice. As for the experimental part: The sedative/muscle relaxant properties of the compounds of formula I in accordance with the invention can be determined, for example, in the rotating rod test. Mice weighing 19-21 g are used for this test. They have free access to feed and drinking water up to 1 hour before the beginning of the test. They are brought into the test laboratory at least 30 minutes before the test. In the rotating rod test the animals are placed on a horizontally arranged, smooth metal rod having a diameter of 3 cm, which is rotated at 2 revolutions per minute. Initially, the animals are given the opportunity of familiarizing themselves with the test situation for 30 seconds. Subsequently, those animals which succeed in remaining on the rod for at least 1 minute are selected. These animals are then given the test preparations intravenously in different dosages. At various points in time it is then determined whether the animals are able to remain on the rod for a minimum period (minimum period: 10 seconds; from 5 minutes after administration: 1 minute.). That dosages at which 50% of the animals are capable of remaining on the rod (ED 50) is determined.

Data set [3] can be described thus: Fatalities after i.v. administration to mice. It counts as in vivo. The settings on record: 32 and 100 mg/kg i.v.
Data set [4] can be described thus: Fatalities after i.v. administration to rats. It counts as in vivo. The settings on record: 32 and 100 mg/kg i.v.
The mark [5] stands for this setting: 15 s, 15 sec after administration, read-out: Rotating rod test, ED50, 15 sec after administration.
Where [6] appears, read: 0.5 min, 30 sec after administration, read-out: Rotating rod test, ED50, 30 sec after administration.
Setting [7] is: 1 min, 60 sec after administration, read-out: Rotating rod test, ED50, 60 sec after administration.
[8] abbreviates: 2 min, 2 min after administration, read-out: Rotating rod test, ED50, 2 min after administration.
The mark [9] stands for this setting: 5 min, 5 min after administration, read-out: Rotating rod test, ED50, 5 min after administration.
[10] abbreviates: 0.25 h, 15 min after administration, read-out: Rotating rod test, ED50, 15 min after administration.
Setting [11] is: 0.5 h, 30 min after administration, read-out: Rotating rod test, ED50, 30 min after administration.
The mark [12] stands for this setting: 1 h, 60 min after administration, read-out: Rotating rod test, ED50, 60 min after administration.

Read-outs that look alike come from different tables or passages of the source.

In data set [1], `CCCN(CCC)Cc1nc(-c2ncn3c2[C@@H]2CCN2C(=O)c2sccc2-3)no1` [B, (S)-1-(5-dipropylaminomethyl-1,2,4-oxadiazol-3-yl)-11,11a-dihydro-8H,10H-azeto[1,2-a]imidazo[5,1-c]thieno[3,2-e][1,4]diazepin-8-one] returned an IC50 of 4.3 nM. Besides, the ED50 is 0.1 mg/kg in data set [2] (setting [5]); 0.1 mg/kg in data set [2] (setting [6]); 0.2 mg/kg in data set [2] (setting [7]); 0.4 mg/kg in data set [2] (setting [8]); 0.7 mg/kg in data set [2] (setting [9]); 3.5 mg/kg in data set [2] (setting [10]). Also, the ED50 in data set [2] (setting [11]) and in data set [2] (setting [12]) was greater than 10 mg/kg throughout. Further, the fatalities entry in data set [3] and in data set [4] was “without fatalities occurring” throughout.

In the case of `CCN(CC)Cc1nc(-c2ncn3c2[C@@H]2CCN2C(=O)c2sccc2-3)no1` [M, (S)-1-(5-diethylaminomethyl-1,2,4-oxadiazol-3-yl)-11,11a-dihydro-8H,10H-azeto[1,2-a]imidazo[5,1-c]thieno[3,2-e][1,4]diazepin-8-one], in data set [1], the IC50 was found to be 6.5 nM. For the same compound, the ED50 was 0.2 mg/kg in data set [2] (setting [5]); 0.3 mg/kg in data set [2] (setting [6]); 0.3 mg/kg in data set [2] (setting [7]); 1.1 mg/kg in data set [2] (setting [8]); 2.1 mg/kg in data set [2] (setting [9]); greater than 10 mg/kg in data set [2] (setting [10]). The ED50 in data set [2] (setting [11]) and in data set [2] (setting [12]) was greater than 10 mg/kg each time.

Compound `CN1Cc2c(-c3noc(CN4CCCCC4)n3)ncn2-c2ccc(F)cc2C1=O` [C, 8-fluoro-5-methyl-3-[5-(piperidin-1-ylmethyl)-1,2,4-oxadiazol-3-yl]-5,6-dihydro-4H-imidazo[1,5-a][1,4]benzodiazepin-6-one] came in with an IC50 in data set [1] of 50 nM. Also, the ED50 was 0.8 mg/kg in data set [2] (setting [5]); 0.8 mg/kg in data set [2] (setting [6]); 1.2 mg/kg in data set [2] (setting [7]); 1.6 mg/kg in data set [2] (setting [8]); 3.2 mg/kg in data set [2] (setting [9]); no less than 10 mg/kg in data set [2] (setting [10]). In addition, the ED50 in data set [2] (setting [11]) and in data set [2] (setting [12]) was greater than 10 mg/kg throughout.

The compound `O=C1c2c(Cl)cccc2-n2cnc(-c3noc(CN4CCCCC4)n3)c2[C@@H]2CCN12` [I, (S)-8-chloro-1-[5-(piperidin-1-yl)methyl-1,2,4-oxadiazol-3-yl]-12,12a-dihydro-9H,11H-azeto[2,1-c]imidazo[1,5-a][1,4]benzodiazepin-9-one] displayed a half-maximal inhibitory concentration (IC50) in data set [1] of 4.4 nM. The ED50 in data set [2] (setting [5]) is 0.1 mg/kg; in data set [2] (setting [6]), 0.7 mg/kg; in data set [2] (setting [7]), 0.7 mg/kg; in data set [2] (setting [8]) it was 1 mg/kg; in data set [2] (setting [9]), 1.1 mg/kg; in data set [2] (setting [10]) it was 3.1 mg/kg. The ED50 was no less than 10 mg/kg in data set [2] (setting [11]) and greater than 10 mg/kg in data set [2] (setting [12]).

The compound `CCN(CC)Cc1nc(-c2ncn3c2CN(C)C(=O)c2cc(F)ccc2-3)no1` [H, 3-(5-diethylaminomethyl-1,2,4-oxadiazol-3-yl)-8-fluoro-5-methyl-5,6-dihydro-4H-imidazo[1,5-a][1,4]benzodiazepin-6-one] registered an IC50 in data set [1] of 25 nM. Further, the ED50 turned out to be 0.1 mg/kg in data set [2] (setting [5]); 0.2 mg/kg in data set [2] (setting [6]); 0.4 mg/kg in data set [2] (setting [7]); 0.7 mg/kg in data set [2] (setting [8]); 1.2 mg/kg in data set [2] (setting [9]); 4.3 mg/kg in data set [2] (setting [10]). Besides, the ED50 in data set [2] (setting [11]) is 5.1 mg/kg; in data set [2] (setting [12]), greater than 10 mg/kg.

Turning to `CCCN(CCC)Cc1nc(-c2ncn3c2CN(C)C(=O)c2ccccc2-3)no1` [F, 3-(5-dipropylaminomethyl-1,2,4-oxadiazol-3-yl)-5-methyl-5,6-dihydro-4H-imidazo[1,5-a][1,4]benzodiazepin-6-one], in data set [1], the IC50 worked out at 6.9 nM. For the same compound, the ED50 was 0.2 mg/kg in data set [2] (setting [5]); 0.4 mg/kg in data set [2] (setting [6]); 0.5 mg/kg in data set [2] (setting [7]); 0.9 mg/kg in data set [2] (setting [8]); no less than 10 mg/kg in data set [2] (setting [9]); greater than 10 mg/kg in data set [2] (setting [10]). In addition, the ED50 in data set [2] (setting [11]) and in data set [2] (setting [12]) was greater than 10 mg/kg each time.

Regarding `CC(C)N(Cc1nc(-c2ncn3c2CN(C)C(=O)c2ccccc2-3)no1)C(C)C` [O, 3-(5-diisopropylaminomethyl-1,2,4-oxadiazol-3-yl)-5-methyl-5,6-dihydro-4H-imidazo[1,5-a][1,4]benzodiazepin-6-one], the IC50 in data set [1] amounted to 6.4 nM. The ED50 in data set [2] (setting [5]) was 0.3 mg/kg; in data set [2] (setting [6]) it was 0.5 mg/kg; in data set [2] (setting [7]), 0.7 mg/kg; in data set [2] (setting [8]) it was 1 mg/kg; in data set [2] (setting [9]), 3 mg/kg; in data set [2] (setting [10]) it was greater than 10 mg/kg. Moreover, the ED50 in data set [2] (setting [11]) and in data set [2] (setting [12]) was greater than 10 mg/kg each time.

As for `CCCCN(CCCC)Cc1nnc(-c2ncn3c2[C@@H]2CCN2C(=O)c2sccc2-3)o1` [N, (S)-1-(5-dibutylaminomethyl-1,3,4-oxadiazol-2-yl)-11,11a-dihydro-8H,10H-azeto[1,2-a]imidazo[5,1-c]thieno[3,2-e][1,4]diazepin-8-one], the IC50 in data set [1] is 4.8 nM. The ED50 in data set [2] (setting [5]) was 0.3 mg/kg; in data set [2] (setting [6]), 0.3 mg/kg; in data set [2] (setting [7]), 0.3 mg/kg; in data set [2] (setting [8]), 0.6 mg/kg; in data set [2] (setting [9]), 2.4 mg/kg; in data set [2] (setting [10]), greater than 10 mg/kg. Further, the ED50 in data set [2] (setting [11]) and in data set [2] (setting [12]) was greater than 10 mg/kg each time.

In the case of `CCN(CC)Cc1nc(-c2ncn3c2CN(C)C(=O)c2c(Cl)cccc2-3)no1` [K, 7-chloro-3-(5-diethylaminomethyl-1,2,4-oxadiazol-3-yl)-5-methyl-5,6-dihydro-4H-imidazo[1,5-a][1,4]benzodiazepin-6-one], in data set [1], the IC50 was 1.4 nM. For the same compound, the ED50 in data set [2] (setting [5]) was 0.1 mg/kg; in data set [2] (setting [6]) it was 0.3 mg/kg; in data set [2] (setting [7]), 0.3 mg/kg; in data set [2] (setting [8]), 0.6 mg/kg; in data set [2] (setting [9]) it was 2 mg/kg; in data set [2] (setting [10]), no less than 10 mg/kg. The ED50 in data set [2] (setting [11]) and in data set [2] (setting [12]) was no less than 10 mg/kg each time.

For the compound `CCCN(CCC)Cc1nnc(-c2ncn3c2CN(C)C(=O)c2c(Cl)cccc2-3)o1` [L, 7-chloro-3-(5-dipropylaminomethyl-1,3,4-oxadiazol-2-yl)-5-methyl-5,6-dihydro-4H-imidazo[1,5-a][1,4]benzodiazepin-6-one], the IC50 in data set [1] was 4.5 nM. In addition, the ED50 in data set [2] (setting [5]) was 0.3 mg/kg; in data set [2] (setting [6]) it was 0.4 mg/kg; in data set [2] (setting [7]), 0.6 mg/kg; in data set [2] (setting [8]), 1.5 mg/kg; in data set [2] (setting [9]), 5 mg/kg; in data set [2] (setting [10]), greater than 10 mg/kg. In addition, the ED50 in data set [2] (setting [11]) and in data set [2] (setting [12]) was greater than 10 mg/kg in each case.

`CCCN(CCC)Cc1nnc(-c2ncn3c2CN(C)C(=O)c2cc(F)ccc2-3)o1` [G, 3-(5-dipropylaminomethyl-1,3,4-oxadiazol-2-yl)-8-fluoro-5-methyl-5,6-dihydro-4H-imidazo[1,5-c][1,4]benzodiazepin-6-one] returned a half-inhibitory concentration (IC50) in data set [1] of 18.3 nM. In addition, the ED50 is 0.3 mg/kg in data set [2] (setting [5]); 0.3 mg/kg in data set [2] (setting [6]); 0.7 mg/kg in data set [2] (setting [7]); 1.1 mg/kg in data set [2] (setting [8]); 3.6 mg/kg in data set [2] (setting [9]); no less than 10 mg/kg in data set [2] (setting [10]). Besides, the ED50 in data set [2] (setting [11]) and in data set [2] (setting [12]) was greater than 10 mg/kg throughout.

Take `CCCN(CCC)Cc1nc(-c2ncn3c2CN(C)C(=O)c2c(F)cccc2-3)no1` [J, 7-fluoro-5-methyl-3-(5-dipropylaminomethyl-1,2,4-oxadiazol-3-yl)-5,6-dihydro-4H-imidazo[1,5-a][1,4]benzodiazepin-6-one]: the IC50 in data set [1] stood at 2.3 nM. The ED50 is 0.1 mg/kg in data set [2] (setting [5]); 0.2 mg/kg in data set [2] (setting [6]); 0.3 mg/kg in data set [2] (setting [7]); 0.4 mg/kg in data set [2] (setting [8]); 1.1 mg/kg in data set [2] (setting [9]); greater than 10 mg/kg in data set [2] (setting [10]). For the same compound, the ED50 in data set [2] (setting [11]) and in data set [2] (setting [12]) was greater than 10 mg/kg in each case.

Turning to `CC(C)N(Cc1nc(-c2ncn3c2CN(C)C(=O)c2cc(F)ccc2-3)no1)C(C)C` [P, 3-(5-diisopropylaminomethyl-1,2,4-oxadiazol-3-yl)-8-fluoro-5-methyl-5,6-dihydro-4H-imidazo[1,5-a][1,4]benzodiazepin-6-one], the IC50 in data set [1] is 4.1 nM. The ED50 in data set [2] (setting [5]) worked out at 0.1 mg/kg; in data set [2] (setting [6]) it was 0.2 mg/kg; in data set [2] (setting [7]), 0.3 mg/kg; in data set [2] (setting [8]) it was 0.7 mg/kg; in data set [2] (setting [9]), 1 mg/kg; in data set [2] (setting [10]) it was 4.3 mg/kg. The ED50 in data set [2] (setting [11]) was no less than 10 mg/kg; in data set [2] (setting [12]) it was greater than 10 mg/kg.
